Molecular target: PLC-δ1 PH domain (Homo sapiens, UniProt P51178)
Format: binding
Conditions: pH 7.5

Sequence of PLC-δ1 PH domain (P51178 21-130): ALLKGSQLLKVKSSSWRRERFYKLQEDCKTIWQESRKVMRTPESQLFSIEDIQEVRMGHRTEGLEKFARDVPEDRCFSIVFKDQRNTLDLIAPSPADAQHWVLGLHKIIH

L-α-phosphatidylinositol-4,5-bisphosphate [PI(4,5)P2]
PIP-binding specificity of PLC-δ1 PH domain: binding specificity
